54 compounds from the Kinase Knowledgebase extract (Sharma et al. 2016) can be followed below.

In one assay the target is PIK3CG (human) (UniProt P48736). Briefly: Assessment of PIK3CG Kinase Activity.
In a further assay the target is PIK3CD (Human) (UniProt O00329). Description: Assessment of PIK3CD Kinase Activity.
Another assay concerns the target PIK3CA (human) (UniProt P42336). Description: Assessment of PIK3CA Kinase Activity.

Sequence of PIK3CG (human) (P48736 whole entry, looked up): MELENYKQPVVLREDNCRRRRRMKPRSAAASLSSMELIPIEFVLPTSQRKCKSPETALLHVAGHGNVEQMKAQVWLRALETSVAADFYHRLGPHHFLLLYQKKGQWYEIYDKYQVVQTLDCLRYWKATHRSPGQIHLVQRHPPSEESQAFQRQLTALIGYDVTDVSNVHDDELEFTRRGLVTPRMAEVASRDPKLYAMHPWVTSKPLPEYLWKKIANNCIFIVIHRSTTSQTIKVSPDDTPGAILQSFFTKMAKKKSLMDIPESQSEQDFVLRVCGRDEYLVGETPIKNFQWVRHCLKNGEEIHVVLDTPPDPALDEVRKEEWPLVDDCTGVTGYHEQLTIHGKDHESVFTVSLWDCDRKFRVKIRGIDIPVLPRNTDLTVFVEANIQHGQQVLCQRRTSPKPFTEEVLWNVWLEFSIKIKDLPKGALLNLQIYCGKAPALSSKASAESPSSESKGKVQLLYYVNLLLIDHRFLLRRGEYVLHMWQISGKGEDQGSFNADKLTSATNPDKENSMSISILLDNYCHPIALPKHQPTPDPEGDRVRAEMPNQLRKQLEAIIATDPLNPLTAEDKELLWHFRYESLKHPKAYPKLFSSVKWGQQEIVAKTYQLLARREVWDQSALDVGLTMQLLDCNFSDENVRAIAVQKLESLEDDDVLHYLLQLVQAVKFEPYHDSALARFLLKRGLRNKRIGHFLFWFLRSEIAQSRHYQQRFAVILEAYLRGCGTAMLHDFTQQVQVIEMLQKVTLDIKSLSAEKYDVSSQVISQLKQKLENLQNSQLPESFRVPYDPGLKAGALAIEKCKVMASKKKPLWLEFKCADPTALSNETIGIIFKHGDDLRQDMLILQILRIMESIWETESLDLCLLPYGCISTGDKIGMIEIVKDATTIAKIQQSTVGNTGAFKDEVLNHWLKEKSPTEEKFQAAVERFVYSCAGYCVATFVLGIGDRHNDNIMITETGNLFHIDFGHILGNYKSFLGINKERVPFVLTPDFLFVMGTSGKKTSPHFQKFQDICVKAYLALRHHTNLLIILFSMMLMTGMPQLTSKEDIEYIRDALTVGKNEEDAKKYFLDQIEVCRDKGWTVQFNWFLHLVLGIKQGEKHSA
Sequence of PIK3CD (Human) (O00329 whole entry, looked up): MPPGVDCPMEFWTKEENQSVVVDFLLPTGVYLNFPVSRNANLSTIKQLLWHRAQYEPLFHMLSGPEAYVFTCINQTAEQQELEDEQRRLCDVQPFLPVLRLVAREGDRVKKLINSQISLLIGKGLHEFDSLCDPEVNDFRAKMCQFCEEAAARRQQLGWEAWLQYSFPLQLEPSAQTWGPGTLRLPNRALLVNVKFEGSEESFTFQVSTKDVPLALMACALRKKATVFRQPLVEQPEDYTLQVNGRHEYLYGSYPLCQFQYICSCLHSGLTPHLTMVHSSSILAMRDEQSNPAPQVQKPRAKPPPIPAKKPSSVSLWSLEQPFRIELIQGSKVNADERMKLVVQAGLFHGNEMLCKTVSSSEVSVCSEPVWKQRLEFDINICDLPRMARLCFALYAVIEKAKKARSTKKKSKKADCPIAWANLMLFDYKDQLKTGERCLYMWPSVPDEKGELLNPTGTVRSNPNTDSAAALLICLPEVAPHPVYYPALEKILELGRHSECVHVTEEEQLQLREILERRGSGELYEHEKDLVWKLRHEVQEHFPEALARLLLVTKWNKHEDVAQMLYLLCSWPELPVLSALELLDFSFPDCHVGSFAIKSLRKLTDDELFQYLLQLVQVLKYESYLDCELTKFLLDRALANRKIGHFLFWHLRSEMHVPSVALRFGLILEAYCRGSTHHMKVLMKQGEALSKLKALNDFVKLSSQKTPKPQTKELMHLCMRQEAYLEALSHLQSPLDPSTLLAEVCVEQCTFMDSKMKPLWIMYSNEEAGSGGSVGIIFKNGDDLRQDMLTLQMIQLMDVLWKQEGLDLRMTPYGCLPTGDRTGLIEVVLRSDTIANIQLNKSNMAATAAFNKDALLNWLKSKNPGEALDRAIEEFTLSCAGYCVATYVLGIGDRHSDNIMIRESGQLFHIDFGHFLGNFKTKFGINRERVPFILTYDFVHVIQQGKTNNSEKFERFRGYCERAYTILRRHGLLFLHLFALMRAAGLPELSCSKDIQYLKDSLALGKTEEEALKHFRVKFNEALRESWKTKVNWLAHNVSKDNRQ
Sequence of PIK3CA (human) (P42336 whole entry, looked up): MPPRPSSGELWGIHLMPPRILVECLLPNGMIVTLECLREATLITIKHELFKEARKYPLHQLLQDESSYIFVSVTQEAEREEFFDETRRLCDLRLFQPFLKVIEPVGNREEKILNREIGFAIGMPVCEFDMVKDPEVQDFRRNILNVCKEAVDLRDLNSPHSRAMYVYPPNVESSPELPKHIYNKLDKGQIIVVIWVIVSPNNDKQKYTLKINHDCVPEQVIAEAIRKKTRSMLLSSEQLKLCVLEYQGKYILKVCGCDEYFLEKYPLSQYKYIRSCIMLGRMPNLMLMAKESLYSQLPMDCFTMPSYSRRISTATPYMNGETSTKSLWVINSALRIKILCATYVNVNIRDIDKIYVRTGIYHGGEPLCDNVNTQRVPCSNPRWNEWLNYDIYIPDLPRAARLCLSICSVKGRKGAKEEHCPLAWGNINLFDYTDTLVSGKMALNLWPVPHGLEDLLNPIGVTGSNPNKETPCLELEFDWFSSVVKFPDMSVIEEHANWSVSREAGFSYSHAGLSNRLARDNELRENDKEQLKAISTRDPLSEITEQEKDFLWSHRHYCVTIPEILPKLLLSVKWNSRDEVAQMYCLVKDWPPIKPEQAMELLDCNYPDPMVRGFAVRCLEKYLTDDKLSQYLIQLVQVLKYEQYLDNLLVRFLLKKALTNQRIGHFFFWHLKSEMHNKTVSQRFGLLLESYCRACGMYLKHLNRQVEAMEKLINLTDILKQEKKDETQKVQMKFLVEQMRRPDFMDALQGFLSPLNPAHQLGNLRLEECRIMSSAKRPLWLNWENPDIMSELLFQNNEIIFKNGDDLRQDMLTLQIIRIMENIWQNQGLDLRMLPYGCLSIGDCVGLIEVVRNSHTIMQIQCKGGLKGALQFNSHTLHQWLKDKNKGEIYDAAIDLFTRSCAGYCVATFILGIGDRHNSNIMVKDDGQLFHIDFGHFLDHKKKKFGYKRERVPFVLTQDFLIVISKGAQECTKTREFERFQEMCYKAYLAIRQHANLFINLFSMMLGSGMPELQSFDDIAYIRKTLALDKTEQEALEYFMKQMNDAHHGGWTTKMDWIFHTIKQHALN

Take `C[C@H](Nc1nc(N)ncc1C#N)c1cc2cccc(Cl)c2c(=O)n1CC(C)(C)C`: the IC50 is 100 to 1000 nM against PIK3CG (human), 100 to 1000 nM on PIK3CD (Human) and greater than 10000 nM at PIK3CA (human).
For the compound `C[C@H](Nc1nc(N)ncc1C#N)c1cc2cccc(-c3ccc(N(C)C)cc3)c2c(=O)n1-c1ccccc1`, the IC50 against PIK3CG (human) and at PIK3CD (Human) was less than 100 nM each time.
As for `Cc1ccc(-n2c([C@H](C)Nc3nc(N)ncc3C#N)cc3cccc(Cl)c3c2=O)cc1`, the IC50 against PIK3CG (human) is less than 100 nM; on PIK3CD (Human) it was less than 100 nM; against PIK3CA (human), greater than 10000 nM.
Regarding `C[C@H](Nc1nc(N)ncc1-c1ccsc1)c1cc2cccc(Cl)c2c(=O)n1-c1ccccc1`, the IC50 on PIK3CG (human) is less than 100 nM; on PIK3CD (Human), less than 100 nM; on PIK3CA (human) it was greater than 10000 nM.
For `C[C@H](Nc1nc(N)ncc1-c1nccs1)c1cc2cccc(Cl)c2c(=O)n1-c1ccccc1`, the IC50 on PIK3CG (human) and on PIK3CD (Human) was less than 100 nM in each case.
As for `C[C@H](Nc1nc(N)ncc1C#N)c1cc2cccc(C#CCCC(=O)N3CCCC3)c2c(=O)n1-c1ccccc1`, the IC50 at PIK3CG (human) and against PIK3CD (Human) was less than 100 nM throughout.
As to `C[C@H](Nc1nc(N)ncc1C#N)c1cc2cccc(-c3cncc(S(C)(=O)=O)c3)c2c(=O)n1-c1ccccc1`, the IC50 on PIK3CG (human) and against PIK3CD (Human) was less than 100 nM throughout.
On to `C[C@H](Nc1nc(N)ncc1-c1cnn(C)c1)c1cc2cccc(Cl)c2c(=O)n1-c1ccccc1`, for which the figures for the IC50 at PIK3CG (human), at PIK3CD (Human) and on PIK3CA (human) were less than 100 nM, 100 to 1000 nM and greater than 10000 nM, respectively.
For `C[C@H](Nc1nc(N)ncc1-c1ccncc1)c1cc2cccc(Cl)c2c(=O)n1-c1ccccc1` the same measures were less than 100 nM, 100 to 1000 nM and greater than 10000 nM.
For `C[C@H](Nc1nc(N)ncc1C#N)c1cc2cccc(-c3cnc4ccccc4c3)c2c(=O)n1-c1cccc(F)c1` the same measures were less than 100 nM, less than 100 nM and 100 to 1000 nM.
Turning to `C[C@H](Nc1nc(N)ncc1C#N)c1cc2cccc(Cl)c2c(=O)n1-c1c(F)cc(F)cc1F`, the IC50 is less than 100 nM at PIK3CG (human), 100 to 1000 nM against PIK3CD (Human) and greater than 10000 nM against PIK3CA (human).
The like results for `C[C@H](Nc1nc(N)ncc1C#N)c1cc2cccc(CC#N)c2c(=O)n1-c1ccccc1` were, in that order, less than 100 nM, less than 100 nM and greater than 10000 nM.
The like results for `COc1ccc(-n2c([C@H](C)Nc3nc(N)ncc3C#N)cc3cccc(Cl)c3c2=O)cc1` were, in that order, less than 100 nM, 100 to 1000 nM and greater than 10000 nM.
With `Cc1cncc(-c2cccc3cc([C@H](C)Nc4nc(N)ncc4C#N)n(-c4ccccc4)c(=O)c23)c1`, the IC50 at PIK3CG (human) and at PIK3CD (Human) was less than 100 nM each time.
Turning to `C[C@H](Nc1nc(N)ncc1C#N)c1cc2cccc(-c3ccc(NS(C)(=O)=O)cc3)c2c(=O)n1-c1ccccc1`, the concentration for half-maximal inhibition (IC50) against PIK3CG (human) and on PIK3CD (Human) was less than 100 nM in each case.
As to `C[C@H](Nc1nc(N)ncc1C#N)c1cc2cccc(Cl)c2c(=O)n1-c1ccc2c(c1)OCO2`, the IC50 on PIK3CG (human) is less than 100 nM; against PIK3CD (Human), 100 to 1000 nM; at PIK3CA (human), greater than 10000 nM.
Turning to `C[C@H](Nc1nc(N)ncc1C#N)c1cc2cccc(-c3ccnc(N)c3)c2c(=O)n1-c1ccccc1`, the IC50 at PIK3CG (human) and against PIK3CD (Human) was less than 100 nM in each case.
With `C[C@H](Nc1nc(N)ncc1C#N)c1cc2cccc(-c3ccc(Cl)cc3)c2c(=O)n1-c1ccccc1`, the IC50 at PIK3CG (human) and against PIK3CD (Human) was less than 100 nM in each case.
Turning to `COc1cc(-c2cccc3cc([C@H](C)Nc4nc(N)ncc4C#N)n(-c4ccccc4)c(=O)c23)cnc1C`, the results for the IC50 at PIK3CG (human), against PIK3CD (Human) and at PIK3CA (human) were less than 100 nM, less than 100 nM and 100 to 1000 nM, respectively.
On to `COc1cncc(-c2cccc3cc([C@H](C)Nc4nc(N)ncc4C#N)n(-c4cccc(F)c4)c(=O)c23)c1`, for which the results for the IC50 against PIK3CG (human), on PIK3CD (Human) and against PIK3CA (human) were less than 100 nM, less than 100 nM and 100 to 1000 nM, respectively.
As to `C[C@H](Nc1nc(N)ncc1C#N)c1cc2cccc(-c3cccc(C#N)c3)c2c(=O)n1-c1ccccc1`, the 50% inhibitory concentration (IC50) at PIK3CG (human) and on PIK3CD (Human) was less than 100 nM in each case.
Take `C[C@H](Nc1nc(N)ncc1C#N)c1cc2cccc(-c3ccc(C#N)cc3)c2c(=O)n1-c1ccccc1`: the IC50 against PIK3CG (human) and on PIK3CD (Human) was less than 100 nM throughout.
As to `C[C@H](Nc1nc(N)ncc1C#N)c1cc2cccc(-c3cncc(N(C)S(C)(=O)=O)c3)c2c(=O)n1-c1ccccc1`, the values for the IC50 against PIK3CG (human), on PIK3CD (Human) and at PIK3CA (human) were less than 100 nM, less than 100 nM and 100 to 1000 nM, respectively.
In the case of `Cc1ncc(-c2cccc3cc([C@H](C)Nc4nc(N)ncc4C#N)n(-c4ccccc4)c(=O)c23)s1`, the IC50 against PIK3CG (human) and against PIK3CD (Human) was less than 100 nM in each case.
For `C[C@H](Nc1nc(N)ncc1C#N)c1cc2cccc(-c3cccc(S(N)(=O)=O)c3)c2c(=O)n1-c1ccccc1`, the IC50 on PIK3CG (human) and on PIK3CD (Human) was less than 100 nM in each case.
For `C[C@H](Nc1nc(N)ncc1C#N)c1nc2cccc(-c3ccnnc3)c2c(=O)n1-c1ccccc1`, the IC50 at PIK3CG (human) and against PIK3CD (Human) was less than 100 nM in each case.
Consider `COc1ccc(-c2cccc3cc([C@H](C)Nc4nc(N)ncc4C#N)n(-c4ccccc4)c(=O)c23)cn1`, for which the IC50 against PIK3CG (human) and on PIK3CD (Human) was less than 100 nM in each case.
Take `COc1ccc(-c2cccc3cc([C@H](C)Nc4nc(N)ncc4C#N)n(-c4ccccc4)c(=O)c23)cc1`: the IC50 against PIK3CG (human) and against PIK3CD (Human) was less than 100 nM each time.
As for `COc1cccc(-c2cccc3cc([C@H](C)Nc4nc(N)ncc4C#N)n(-c4ccccc4)c(=O)c23)c1`, the IC50 on PIK3CG (human), at PIK3CD (Human) and against PIK3CA (human) was less than 100 nM each time.
For the compound `COc1cncc(-c2cccc3cc([C@H](C)Nc4nc(N)ncc4C(N)=O)n(-c4ccccc4)c(=O)c23)c1`, the IC50 at PIK3CG (human) is less than 100 nM; against PIK3CD (Human), less than 100 nM; against PIK3CA (human), 100 to 1000 nM.
As to `C[C@H](Nc1nc(N)ncc1C#N)c1cc2cccc(-c3cncc(C(F)(F)F)c3)c2c(=O)n1-c1ccccc1`, the IC50 against PIK3CG (human) and at PIK3CD (Human) was less than 100 nM in each case.
Take `COc1ncc(-c2cccc3cc([C@H](C)Nc4nc(N)ncc4C#N)n(-c4ccccc4)c(=O)c23)s1`: the IC50 at PIK3CG (human) and at PIK3CD (Human) was less than 100 nM each time.
Consider `C[C@H](Nc1nc(N)ncc1C#N)c1nc2cccc(-c3cnn(C)c3)c2c(=O)n1-c1ccccc1`, for which the IC50 on PIK3CG (human) and against PIK3CD (Human) was less than 100 nM throughout.
Turning to `CC(C)Oc1cncc(-c2cccc3cc([C@H](C)Nc4nc(N)ncc4C#N)n(-c4ccccc4)c(=O)c23)c1`, the IC50 against PIK3CG (human), at PIK3CD (Human) and on PIK3CA (human) was less than 100 nM throughout.
Regarding `CCOc1cc(-c2cccc3cc([C@H](C)Nc4nc(N)ncc4C#N)n(-c4ccccc4)c(=O)c23)ccn1`, the IC50 on PIK3CG (human) is less than 100 nM; against PIK3CD (Human) it was less than 100 nM; at PIK3CA (human), 100 to 1000 nM.
On to `Cc1nc(-c2cnc(N)nc2N[C@@H](C)c2cc3cccc(Cl)c3c(=O)n2-c2ccccc2)sc1C`, for which the IC50 at PIK3CG (human) was 100 to 1000 nM; against PIK3CD (Human), 100 to 1000 nM; against PIK3CA (human) it was greater than 10000 nM.
Consider `C[C@H](Nc1nc(N)ncc1C#N)c1cc2cccc(-c3ccc(=O)n(C)c3)c2c(=O)n1-c1ccccc1`, for which the IC50 on PIK3CG (human) and against PIK3CD (Human) was less than 100 nM throughout.
On to `C[C@H](Nc1nc(N)ncc1C#N)c1cc2cccc(-c3cccc(NS(C)(=O)=O)c3)c2c(=O)n1-c1ccccc1`, for which the IC50 against PIK3CG (human) and on PIK3CD (Human) was less than 100 nM throughout.
On to `Cc1cc(-c2cccc3nc([C@H](C)Nc4nc(N)ncc4C#N)n(-c4ccccc4)c(=O)c23)ccn1`, for which the IC50 at PIK3CG (human) and on PIK3CD (Human) was less than 100 nM throughout.
`C[C@H](Nc1nc(N)ncc1C#N)c1cc2cccc(-c3ccc(S(N)(=O)=O)cc3)c2c(=O)n1-c1ccccc1`: the IC50 against PIK3CG (human) and against PIK3CD (Human) was less than 100 nM throughout.
Turning to `C[C@H](Nc1nc(N)ncc1C#N)c1cc2cccc(Cl)c2c(=O)n1-c1ccc(C#N)cc1`, the IC50 on PIK3CG (human) was 100 to 1000 nM; against PIK3CA (human), greater than 10000 nM.
With `COc1ncc(-c2cccc3cc([C@H](C)Nc4nc(N)ncc4C#N)n(C4CC4)c(=O)c23)cn1`, the IC50 was 100 to 1000 nM against PIK3CG (human) and less than 100 nM at PIK3CD (Human).
For `CCn1cc(-c2cccc3cc([C@H](C)Nc4nc(N)ncc4C#N)n(-c4ccccc4)c(=O)c23)ccc1=O` the same measures were less than 100 nM and less than 100 nM.
For `C[C@H](Nc1nc(N)ncc1C#N)c1cc2ccccc2c(=O)n1-c1ccccc1` the same measures were less than 100 nM and less than 100 nM.
For `Cc1cc(-c2cccc3cc([C@H](C)Nc4nc(N)ncc4C#N)n(-c4cccc(F)c4)c(=O)c23)ccn1` the same measures were less than 100 nM and less than 100 nM.
Turning to `C[C@H](Nc1nc(N)ncc1C#N)c1cc2cccc(-c3c[nH]nn3)c2c(=O)n1-c1ccccc1`, the IC50 at PIK3CG (human) and against PIK3CD (Human) was less than 100 nM each time.
On to `C[C@H](Nc1nc(N)ncc1C#N)c1cc2cccc(-c3ccnc(NS(C)(=O)=O)c3)c2c(=O)n1-c1ccccc1`, for which the half-inhibitory concentration (IC50) at PIK3CG (human) and against PIK3CD (Human) was less than 100 nM in each case.
Turning to `C[C@H](Nc1nc(N)ncc1C#N)c1cc2cccc(-c3cncc(F)c3)c2c(=O)n1-c1ccccc1`, the IC50 on PIK3CG (human) and against PIK3CD (Human) was less than 100 nM each time.
In the case of `C[C@H](Nc1nc(N)ncc1C#N)c1cc2cccc(-c3ccc4c(c3)OCO4)c2c(=O)n1-c1ccccc1`, the IC50 against PIK3CG (human) and against PIK3CD (Human) was less than 100 nM each time.
As to `COc1cc(-c2cccc3nc([C@H](C)Nc4nc(N)ncc4C#N)n(-c4ccccc4)c(=O)c23)ccn1`, the IC50 against PIK3CG (human) and against PIK3CD (Human) was less than 100 nM in each case.
As to `C[C@H](Nc1nc(N)ncc1C#N)c1cc2cccc(Cl)c2c(=O)n1C1CCCCC1`, the IC50 against PIK3CG (human) and on PIK3CD (Human) was less than 100 nM in each case.
For the compound `C[C@H](Nc1nc(N)ncc1C#N)c1cc2cccc(-c3cnoc3)c2c(=O)n1-c1ccccc1`, the IC50 at PIK3CG (human) and at PIK3CD (Human) was less than 100 nM each time.
For the compound `CC(C)n1cc(-c2cccc3cc([C@H](C)Nc4nc(N)ncc4C#N)n(-c4ccccc4)c(=O)c23)ccc1=O`, the IC50 at PIK3CG (human) and against PIK3CD (Human) was less than 100 nM each time.
For `C[C@H](Nc1nc(N)ncc1C#N)c1cc2cccc(-c3ccc(=O)n(CC4CC4)c3)c2c(=O)n1-c1ccccc1`, the IC50 on PIK3CG (human) and at PIK3CD (Human) was less than 100 nM each time.
